# Test system: T1, mTRPC4ß-YFP
# T1 construct: expressed in transfected cells
# Assay: Selectivity profiling, fluo-4 [Ca2+]i response, TRPC4
# Type: cell-based, mouse
# Conditions: 100 µM
# Protocol: Human embryonic kidney 293 (HEK293) cells were stably transfected with expression plasmids that encode hTRPC3-YFP, hTRPC6-YFP, hTRPC7-YFP, mTRPC4ß-YFP, rTRPV1-CFP, rTRPV2-YFP, rTRPV3-YFP, mTRPV4-YFP, or hTRPM2 as previously described. Cell lines were cultured in Earle’s minimum essential medium (MEM; Sigma, Munich, Germany), supplemented with 10% fetal calf serum (Gibco Thermo Fisher Scientific, Darmstadt, Germany), 2 mM L-glutamine, and required concentrations of geneticin in a range of 0.4–1 mg/mL. A HEK293mTRPC5-YFP cell line was maintained and induced as described before. […] For electrophysiological and single cell [Ca^2+]i imaging experiments, PC12 cells were plated onto 25 mm poly-L-lysine-coated glass coverslips and measured 24–48 h after seeding. […]
# The primary compound screen and the generation of concentration response curves in HEK293 cells or in PC12 cells were performed by using a custom-made fluorescence plate imager built into a robotic liquid handling station equipped with a 96-tip multichannel head (Freedom Evo 150, Tecan, Männedorf, Switzerland) as described previously. […] Plates were mounted on the imager, and fluorescence signals were recorded with a cooled Zyla 5.5 camera (Andor, Belfast, UK) through a 515 nm long pass filter. […] When inhibitory potencies were evaluated, a second pipetting step with the respective reference agonist was performed. […]
compound,measurement,value
C[C@@H]1CC[C@H]2[C@@H](C)C(=O)O[C@@H]3O[C@@]4(C)CC[C@@H]1[C@]32OO4 [artemisinin],"[Ca2+]i response, TRPC4",none of the cell lines responded
